Experimental data taken from patent publication US20260258088A1, “DISC1-BINDING PEPTIDES AND THE USE THEREOF FOR THE TREATMENT AND DIAGNOSIS OF SCHIZOPHRENIA AND OTHER CHRONIC MENTAL DISORDERS” (FORSCHUNGSZENTRUM JUELICH GMBH, priority 2022, published 2026).
Changes are numbered by the printed parent chain. Ends that are not written are not given here.

Columns and labels:
Conditions in all cases: peptide immobilized, protein 2 μM, 25° C., TBS pH 7.4, KD = Koff/Kon
[1] = target: T1, wild-type (WT) human DISC1 C-region (residues 691-836) (Homo sapiens, UniProt Q9NRI5); assay: Bio-layer interferometry (BLI) binding of immobilized peptides to WT C-region
T1 construct: human DISC1 C-region (residues 691-836); His6 (N); made in house; host or cells: E. coli BL21 (DE3) pLysE T1R
T1 sequence (Q9NRI5 691-836): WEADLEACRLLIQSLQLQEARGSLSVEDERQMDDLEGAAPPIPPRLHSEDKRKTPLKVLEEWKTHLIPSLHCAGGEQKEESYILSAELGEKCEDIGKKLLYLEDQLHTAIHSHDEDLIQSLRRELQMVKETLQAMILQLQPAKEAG
Experimental: Protein expression and purification. The wild-type (WT) human DISC1 C-region (residues 691-836) was expressed alternatively as N-terminal His6—fusion construct, which was expressed as previously described using the E. coli BL21 (DE3) pLysE T1R cells. The culture was grown either in Luria-Bertani (LB) broth and protein expression was induced at an OD600 of 0.6 by the addition of 1 mM isopropyl-β-D-thiogalactopyranoside (IPTG) for 16 h at 18° C. Harvested cells were lysed using an ice-chilled microfluidizer M100P (Microfluidics MPT) at 15, 000 PSI in Tris-buffered saline (TBS) buffer containing 10 mM Tris-HCl pH 7.4, 150 mM NaCl and Complete EDTA-free protease inhibitor cocktail (Roche). The soluble fraction was purified on Co^2+-NTA resin (Qiagen) and was eluted using TBS containing 500 mM imidazole. In the next step, the WT C-region protein was further purified on a HiLoad 16/60 Superdex 200 size exclusion chromatography column (GE Healthcare Bio Sciences).
(§1) Bio-layer interferometry (BLI) for identification of peptide leads. Binding of the peptides with the C-region constructs (WT, S713E, S704C and L807-FS) were investigated using an Octet (ForteBio) instrument. Prior to measurements, all peptides were solubilized in phosphate buffered saline (PBS) containing 20 mM Na-phosphate, pH 7.4, and 150 mM NaCl. For coupling of the peptide (ligand), the A2RG sensor chip (Sartorius GmbH) were activated with 1-ethyl-3-(3-dimethylaminopropyl) carbodiimide (EDC)/N hydroxysuccinimide (NHS) (200 mM/50 mM); the peptides were diluted to 2 μM in 10 mM sodium acetate, pH 4.0, and immobilized to the sensor chip, and the flow cell was deactivated with 0.1 M ethanolamine-HCl, pH 8.5. Titrations of the above-mentioned C-region and the constructs were performed at 25° C. with TBS, pH 7.4 as the running buffer using protein concentrations of 2 μM without intermittent regeneration.
Data analysis of peptide-protein interaction. In order to assess the binding isotherms of the protein to the immobilized peptides, I derived the binding affinity (KD) by computing the on-rate (Kon) and the off-rate (Koff) by deriving the reciprocals of the exponential fittings of association and dissociation (OriginPro 2020).
The binding affinity (KD) was derived by dividing the off-rate (Koff) with the on-rate (Kon).

[2] = target: T2, DISC1 C-region (residues 691-836) mutant S713E (Homo sapiens, UniProt Q9NRI5, S713E); assay: Bio-layer interferometry (BLI) binding of immobilized peptides to S713E C-region
T2 construct: DISC1 C-region (residues 691-836) mutant versions S704C, and/or 713E and/or L807-FS
T2 sequence (Q9NRI5 691-836 S713E): T1 sequence (Q9NRI5 691-836) with S23E
Experimental: as §1, with “regeneration. Data analysis of peptide-protein interaction. In order to assess the binding isotherms of the protein to the immobilized peptides, I derived the binding affinity (KD) by computing the on-rate (Kon) and the off-rate (Koff) by deriving the reciprocals of the exponential fittings of association and dissociation (OriginPro 2020). The binding affinity (KD) was derived by dividing the off-rate (Koff) with the on-rate (Kon).” for “regeneration.”

[3] = target: T3, DISC1 C-region (residues 691-836) mutant S704C (Homo sapiens, UniProt Q9NRI5, S704C); assay: Bio-layer interferometry (BLI) binding of immobilized peptides to S704C C-region
T3 construct: DISC1 C-region (residues 691-836) mutant versions S704C, and/or 713E and/or L807-FS
T3 sequence (Q9NRI5 691-836 S704C): T1 sequence (Q9NRI5 691-836) with S14C
Experimental: as §1, with “regeneration. Data analysis of peptide-protein interaction. In order to assess the binding isotherms of the protein to the immobilized peptides, I derived the binding affinity (KD) by computing the on-rate (Kon) and the off-rate (Koff) by deriving the reciprocals of the exponential fittings of association and dissociation (OriginPro 2020). The binding affinity (KD) was derived by dividing the off-rate (Koff) with the on-rate (Kon).” for “regeneration.”

[4] = target: DISC1 C-region (residues 691-836) mutant L807-FS; assay: Bio-layer interferometry (BLI) binding of immobilized peptides to L807-FS C-region; parameters: species or system human
Experimental: as §1, with “regeneration. Data analysis of peptide-protein interaction. In order to assess the binding isotherms of the protein to the immobilized peptides, I derived the binding affinity (KD) by computing the on-rate (Kon) and the off-rate (Koff) by deriving the reciprocals of the exponential fittings of association and dissociation (OriginPro 2020). The binding affinity (KD) was derived by dividing the off-rate (Koff) with the on-rate (Kon).” for “regeneration.”

Substance | Kd [1] | Kd [2] | Kd [3] | Kd [4]
AWQHHELKWKQYQGWR-NH2 [Flm2, AWQHHELKWKQYQGWR-NH2] | 0.64 µM | 0.22 µM | 0.15 µM | 0.11 µM
FPHPTLKHREFMRHVS-NH2 [Flo1, FPHPTLKHREFMRHVS-NH2] | 0.1 µM | 0.07 µM | 0.16 µM | 0.04 µM
GIKSLISNKMHTQWNY-NH2 [Flm5, GIKSLISNKMHTQWNY-NH2] | 0.64 µM | 0.08 µM | 0.15 µM | 0.11 µM
HISMQTYKWSQWAKHQ-NH2 [Flo3, HISMQTYKWSQWAKHQ-NH2] | 2.62 µM | 0.42 µM | 0.27 µM | 0.4 µM
HKLHHLLKWENQHKVE-NH2 [Flm11, HKLHHLLKWENQHKVE-NH2] | 1.27 µM | 0.42 µM | 0.72 µM | 0.54 µM
IWAGHIHDWWRRGQGS-NH2 [Flm1, IWAGHIHDWWRRGQGS-NH2] | 0.15 µM | 0.08 µM | 0.08 µM | 0.2 µM
KYTAIHEWYKAHNGGA-NH2 [Flo8, KYTAIHEWYKAHNGGA-NH2] | 2.62 µM | 0.46 µM | 1.04 µM | 0.17 µM
PWYNAPHSHGFWGSGR-NH2 [Flm9, PWYNAPHSHGFWGSGR-NH2] | 3.2 µM | 1.5 µM | 1.49 µM | 0.39 µM
QDNPWWHEHKHWKSWP-NH2 [Flo5, QDNPWWHEHKHWKSWP-NH2] | 0.25 µM | 0.21 µM | 0.36 µM | 0.27 µM
SNWHPRHFFMSPSSPQ-NH2 [Flo6, SNWHPRHFFMSPSSPQ-NH2] | 2.36 µM | 0.46 µM | 0.72 µM | 0.17 µM
TSGVPWWKFQQQVRRT-NH2 [Flo11, TSGVPWWKFQQQVRRT-NH2] | 3.68 µM | 0.89 µM | 1.06 µM | 0.16 µM
WNHPMNIRSISWHKDS-NH2 [Flm6, WNHPMNIRSISWHKDS-NH2] | 2.01 µM | 1.07 µM | 2.24 µM | 0.53 µM
